Laboratory results reported in patent US8367830B2, “Methods for the identification of phosphatidylinositol kinase interacting molecules and for the purification of phosphatidylinositol kinase proteins” (Cellzome AG, priority 2009, dated 2013).

Legend:
PIK3C3 = target: T1, PIK3C3 (Homo sapiens, UniProt Q8NEB9); assay: Kinobeads competition binding, immobilized CZC31207, Jurkat/Ramos lysate mix; settings: 10 μM free compound; mix of Jurkat and Ramos cell lysates
T1 construct: endogenous in cells; host or cells: mixed lysate of Jurkat and Ramos cells
T1 sequence (Q8NEB9 whole entry): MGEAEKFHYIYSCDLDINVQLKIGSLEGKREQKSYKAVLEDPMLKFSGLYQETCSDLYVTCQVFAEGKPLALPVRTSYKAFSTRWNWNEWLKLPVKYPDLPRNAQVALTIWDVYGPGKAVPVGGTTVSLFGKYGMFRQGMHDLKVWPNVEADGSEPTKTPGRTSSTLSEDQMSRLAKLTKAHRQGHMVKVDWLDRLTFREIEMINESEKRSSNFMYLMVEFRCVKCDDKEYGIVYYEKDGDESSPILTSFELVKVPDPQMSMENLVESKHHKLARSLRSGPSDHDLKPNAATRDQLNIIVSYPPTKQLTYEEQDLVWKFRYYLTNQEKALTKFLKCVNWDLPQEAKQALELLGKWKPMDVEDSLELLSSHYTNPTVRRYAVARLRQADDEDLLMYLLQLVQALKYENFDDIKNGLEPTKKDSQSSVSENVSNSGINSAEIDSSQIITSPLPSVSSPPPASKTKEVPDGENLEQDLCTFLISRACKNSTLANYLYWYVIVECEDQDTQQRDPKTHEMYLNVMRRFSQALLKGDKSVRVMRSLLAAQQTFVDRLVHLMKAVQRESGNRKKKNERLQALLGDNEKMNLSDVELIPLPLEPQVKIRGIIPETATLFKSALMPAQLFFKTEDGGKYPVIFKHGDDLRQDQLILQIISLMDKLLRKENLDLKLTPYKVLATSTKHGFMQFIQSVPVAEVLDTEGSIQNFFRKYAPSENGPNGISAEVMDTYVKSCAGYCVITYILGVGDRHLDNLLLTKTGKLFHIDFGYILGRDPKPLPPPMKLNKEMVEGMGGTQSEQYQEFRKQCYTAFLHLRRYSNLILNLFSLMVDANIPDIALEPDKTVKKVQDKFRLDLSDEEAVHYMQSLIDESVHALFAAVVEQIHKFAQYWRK
Method: (§1) To the first aliquot of cell lysate 10 μM of the free compound CZC31207 was added and allowed to bind to proteins in the lysate. Then the affinity matrix with the immobilized compound was added to capture proteins that were not interacting with the previously added free compound. Beads were separated from the lysate and bead bound proteins were eluted in SDS sample buffer and subsequently separated by SDS-Polyacrylamide gel electrophoresis (FIG. 5). Suitable gel bands were cut out and subjected to in-gel proteolytic digestion with trypsin. The second lysate aliquot was processed identically, however no free compound was added (DMSO solvent control). Peptides originating from samples 1 and 2 were labeled with iTRAQ reagents (iTRAQ 114 and iTRAQ 116) and the combined samples were analyzed with a nano-flow liquid chromatography system coupled online to a tandem mass spectrometer (LC-MS/MS) experiment followed by iTRAQ reporter ion quantification in the MS/MS spectra as described in Example 2.
(§2) Jurkat cells (ATCC number T1B-152) and Ramos cells (ATCC number CRL-1596) were either obtained from an external supplier (CIL SA, Mons, Belgium) or grown in one litre Spinner flasks (Integra Biosciences, #182101) in suspension in RPMI 1640 medium (Invitrogen, #21875-034) supplemented with 10% Fetal Bovine Serum (Invitrogen, #10270-106) at a density between 0.2×10^6 and 1.0×10^6 cells/ml. Cells were harvested by centrifugation, washed once with 1×PBS buffer (Invitrogen, #14190-094) and cell pellets were frozen in liquid nitrogen and subsequently stored at −80° C.
(§3) The identified kinases are shown in Table 5 including the percent competition values for the sample to which 10 μM free compound had been added. In total of 20 different kinases were identified and competed by different degrees.

PKD2 = target: T2, PKD2 (Homo sapiens, UniProt Q9BZL6); assay: as above; settings: 10 μM free compound; mix of Jurkat and Ramos cell lysates
T2 construct: endogenous in cells; host or cells: mixed lysate of Jurkat and Ramos cells
Method: as §1, §2, §3

CaMK2d = target: T3, CaMK2d (Homo sapiens, UniProt Q13557); assay: as above; settings: 10 μM free compound; mix of Jurkat and Ramos cell lysates
T3 construct: endogenous in cells; host or cells: mix of Jurkat and Ramos cell lysates
T3 sequence (Q13557 whole entry): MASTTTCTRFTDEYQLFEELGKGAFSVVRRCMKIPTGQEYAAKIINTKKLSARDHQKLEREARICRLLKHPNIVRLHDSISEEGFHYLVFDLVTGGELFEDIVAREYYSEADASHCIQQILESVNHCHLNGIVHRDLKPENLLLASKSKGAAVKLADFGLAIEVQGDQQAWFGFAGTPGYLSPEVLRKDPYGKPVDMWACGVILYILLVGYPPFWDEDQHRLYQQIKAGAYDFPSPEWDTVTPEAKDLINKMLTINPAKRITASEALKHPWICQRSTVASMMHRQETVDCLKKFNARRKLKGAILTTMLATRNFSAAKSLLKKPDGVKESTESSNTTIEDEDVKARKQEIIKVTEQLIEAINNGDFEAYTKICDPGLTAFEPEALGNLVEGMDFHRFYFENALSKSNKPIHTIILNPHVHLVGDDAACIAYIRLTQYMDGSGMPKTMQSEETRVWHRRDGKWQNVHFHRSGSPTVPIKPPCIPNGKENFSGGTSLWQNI
Method: as §1, §2, §3

CDC2 = target: T4, CDC2 (Homo sapiens, UniProt P06493); assay: as above; settings: 10 μM free compound; mix of Jurkat and Ramos cell lysates
T4 construct: endogenous in cells; host or cells: mixed lysate of Jurkat and Ramos cells
Method: as §1, §2, §3

PIK4C2B = target: T5, PIK4C2B (Homo sapiens, UniProt Q8TCG2); assay: as above; settings: 10 μM free compound; mix of Jurkat and Ramos cell lysates
T5 construct: endogenous in cells; host or cells: mixed lysate of Jurkat and Ramos cells
Method: as §1, §2, §3

PIP5K2A = target: T6, PIP5K2A (Homo sapiens, UniProt P48426); assay: as above; settings: 10 μM free compound; mix of Jurkat and Ramos cell lysates
T6 construct: endogenous in cells
Method: as §1, §2, §3

MST1 = target: T7, MST1 (Homo sapiens, UniProt Q13043); assay: as above; settings: 10 μM free compound; mix of Jurkat and Ramos cell lysates
T7 construct: endogenous in cells; host or cells: mixed lysate of Jurkat and Ramos cells
Method: as §1, §2, §3

BIKE = target: T8, BIKE (Homo sapiens, UniProt Q9NSY1); assay: as above; settings: 10 μM free compound; mix of Jurkat and Ramos cell lysates
T8 construct: endogenous in cells; host or cells: mix of Jurkat and Ramos cell lysates
T8 sequence (Q9NSY1 whole entry): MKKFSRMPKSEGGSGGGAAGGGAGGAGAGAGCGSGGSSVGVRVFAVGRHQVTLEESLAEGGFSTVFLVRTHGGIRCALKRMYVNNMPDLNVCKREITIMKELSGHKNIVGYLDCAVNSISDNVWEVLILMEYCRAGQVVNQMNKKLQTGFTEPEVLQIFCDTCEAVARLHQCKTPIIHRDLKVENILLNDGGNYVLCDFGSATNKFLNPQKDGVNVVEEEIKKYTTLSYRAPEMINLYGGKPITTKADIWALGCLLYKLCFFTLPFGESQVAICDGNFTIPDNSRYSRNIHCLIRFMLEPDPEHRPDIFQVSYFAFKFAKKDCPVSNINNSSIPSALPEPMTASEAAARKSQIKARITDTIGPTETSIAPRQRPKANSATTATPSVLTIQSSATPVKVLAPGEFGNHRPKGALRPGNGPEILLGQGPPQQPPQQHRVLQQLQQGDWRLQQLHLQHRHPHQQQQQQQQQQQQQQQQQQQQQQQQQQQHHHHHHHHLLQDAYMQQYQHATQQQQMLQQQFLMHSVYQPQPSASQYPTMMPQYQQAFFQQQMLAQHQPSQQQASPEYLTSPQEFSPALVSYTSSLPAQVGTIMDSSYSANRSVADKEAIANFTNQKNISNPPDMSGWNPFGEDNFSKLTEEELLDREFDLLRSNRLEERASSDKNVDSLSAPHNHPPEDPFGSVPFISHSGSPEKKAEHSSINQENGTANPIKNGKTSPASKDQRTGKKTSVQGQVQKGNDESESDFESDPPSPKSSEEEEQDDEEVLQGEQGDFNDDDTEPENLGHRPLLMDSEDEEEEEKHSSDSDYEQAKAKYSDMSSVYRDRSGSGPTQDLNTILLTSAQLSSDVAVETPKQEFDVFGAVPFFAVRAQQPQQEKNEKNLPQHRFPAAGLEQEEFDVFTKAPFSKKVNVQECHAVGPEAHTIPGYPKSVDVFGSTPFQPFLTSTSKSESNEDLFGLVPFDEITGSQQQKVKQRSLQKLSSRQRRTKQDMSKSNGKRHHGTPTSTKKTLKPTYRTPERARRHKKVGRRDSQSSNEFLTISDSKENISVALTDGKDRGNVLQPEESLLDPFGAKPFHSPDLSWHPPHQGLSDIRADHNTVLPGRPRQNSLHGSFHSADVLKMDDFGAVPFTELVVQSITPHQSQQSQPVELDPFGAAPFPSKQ
Method: as §1, §2, §3

CDK6 = target: T9, CDK6 (Homo sapiens, UniProt Q00534); assay: as above; settings: 10 μM free compound; mix of Jurkat and Ramos cell lysates
T9 construct: endogenous in cells; host or cells: mixed lysate of Jurkat and Ramos cells
T9 sequence (Q00534 whole entry): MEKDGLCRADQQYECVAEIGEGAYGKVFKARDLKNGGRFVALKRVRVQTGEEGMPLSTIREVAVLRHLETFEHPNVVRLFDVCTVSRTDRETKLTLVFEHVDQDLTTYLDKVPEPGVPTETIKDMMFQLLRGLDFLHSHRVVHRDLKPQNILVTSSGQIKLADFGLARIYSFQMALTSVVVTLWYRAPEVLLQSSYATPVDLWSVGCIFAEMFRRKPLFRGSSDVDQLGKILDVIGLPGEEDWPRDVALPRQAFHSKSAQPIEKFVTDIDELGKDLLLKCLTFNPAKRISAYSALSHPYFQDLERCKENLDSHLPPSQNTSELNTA
Method: as §1, §2, §3

CaMK2g = CaMK2g (Homo sapiens, UniProt Q13555); assay: as above; parameters: capturing and identification of kinases from amix of Jurkat and Ramos cell lysates; endogenous in cells; host or cells: mix of Jurkat and Ramos cell lysates; settings: 10 μM free compound; mix of Jurkat and Ramos cell lysates
Method: as §1
as §2, with “Cells were harvested by centrifugation, washed once with 1×PBS buffer (Invitrogen, #14190-094) and cell pellets were frozen in liquid nitrogen and subsequently stored at −80° C.” left out

PIK4Ca = PIK4Ca (Homo sapiens, UniProt P42356); assay: as above; parameters: capturing and identification of kinases from amix of Jurkat and Ramos cell lysates; endogenous in cells; host or cells: mix of Jurkat and Ramos cell lysates; settings: 10 μM free compound; mix of Jurkat and Ramos cell lysates
Method: as §1
as §2, with “Cells were harvested by centrifugation, washed once with 1×PBS buffer (Invitrogen, #14190-094) and cell pellets were frozen in liquid nitrogen and subsequently stored at −80° C.” left out

PIK3Cb = PIK3Cb (Homo sapiens, UniProt P42338); assay: as above; parameters: endogenous in cells; settings: 10 μM free compound; mix of Jurkat and Ramos cell lysates
Method: as §1, §2, §3

PIP5K2C = PIP5K2C (Homo sapiens, UniProt Q8TBX8); assay: as above; parameters: endogenous in cells; settings: 10 μM free compound; mix of Jurkat and Ramos cell lysates
PIP5K2C, sequence (Q8TBX8 whole entry): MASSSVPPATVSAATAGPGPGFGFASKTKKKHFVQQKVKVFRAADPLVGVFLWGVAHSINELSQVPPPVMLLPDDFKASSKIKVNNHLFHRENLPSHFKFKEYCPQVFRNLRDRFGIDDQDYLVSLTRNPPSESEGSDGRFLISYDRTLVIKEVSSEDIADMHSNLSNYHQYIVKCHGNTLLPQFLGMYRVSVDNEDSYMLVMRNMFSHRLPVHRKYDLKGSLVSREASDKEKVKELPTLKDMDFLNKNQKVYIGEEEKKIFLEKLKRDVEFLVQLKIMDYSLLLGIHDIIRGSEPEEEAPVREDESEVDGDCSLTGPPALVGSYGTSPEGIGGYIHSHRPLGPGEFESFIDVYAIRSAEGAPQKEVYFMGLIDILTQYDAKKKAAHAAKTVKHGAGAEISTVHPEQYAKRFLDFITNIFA
Method: as §1, §2, §3

PIK3Cd [1] = target: T10, PIK3Cd (Homo sapiens, UniProt O00329); assay: as above; parameters: endogenous in cells; settings: 10 μM free compound; mix of Jurkat and Ramos cell lysates
T10 sequence (O00329 whole entry): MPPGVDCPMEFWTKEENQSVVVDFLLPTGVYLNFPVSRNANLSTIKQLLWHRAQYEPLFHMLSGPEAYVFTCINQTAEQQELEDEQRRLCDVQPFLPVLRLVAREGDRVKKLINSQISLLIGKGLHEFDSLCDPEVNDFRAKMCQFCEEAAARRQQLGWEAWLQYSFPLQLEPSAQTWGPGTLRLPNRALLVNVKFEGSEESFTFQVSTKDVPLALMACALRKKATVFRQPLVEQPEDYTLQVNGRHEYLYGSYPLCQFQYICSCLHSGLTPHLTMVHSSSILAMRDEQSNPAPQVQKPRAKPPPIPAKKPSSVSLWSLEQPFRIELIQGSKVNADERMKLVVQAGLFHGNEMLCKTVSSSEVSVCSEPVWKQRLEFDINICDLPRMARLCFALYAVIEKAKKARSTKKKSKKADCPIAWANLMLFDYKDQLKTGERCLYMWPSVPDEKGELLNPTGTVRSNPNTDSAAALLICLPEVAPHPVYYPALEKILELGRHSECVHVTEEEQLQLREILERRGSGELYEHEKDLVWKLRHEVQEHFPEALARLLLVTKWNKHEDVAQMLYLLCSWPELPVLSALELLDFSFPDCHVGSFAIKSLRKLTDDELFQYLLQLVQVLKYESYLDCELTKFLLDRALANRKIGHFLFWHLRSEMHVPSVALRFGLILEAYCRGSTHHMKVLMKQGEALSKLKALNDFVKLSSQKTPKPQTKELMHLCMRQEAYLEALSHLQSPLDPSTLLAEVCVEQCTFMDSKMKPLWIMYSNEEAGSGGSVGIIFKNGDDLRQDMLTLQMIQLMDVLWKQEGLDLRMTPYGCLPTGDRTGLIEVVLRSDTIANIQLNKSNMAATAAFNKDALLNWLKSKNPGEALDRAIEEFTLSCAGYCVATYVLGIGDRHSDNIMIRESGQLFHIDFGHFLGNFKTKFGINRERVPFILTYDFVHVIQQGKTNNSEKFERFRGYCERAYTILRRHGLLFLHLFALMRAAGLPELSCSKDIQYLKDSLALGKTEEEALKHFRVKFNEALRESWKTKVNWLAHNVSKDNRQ
T10 sequence (P27986 whole entry partner): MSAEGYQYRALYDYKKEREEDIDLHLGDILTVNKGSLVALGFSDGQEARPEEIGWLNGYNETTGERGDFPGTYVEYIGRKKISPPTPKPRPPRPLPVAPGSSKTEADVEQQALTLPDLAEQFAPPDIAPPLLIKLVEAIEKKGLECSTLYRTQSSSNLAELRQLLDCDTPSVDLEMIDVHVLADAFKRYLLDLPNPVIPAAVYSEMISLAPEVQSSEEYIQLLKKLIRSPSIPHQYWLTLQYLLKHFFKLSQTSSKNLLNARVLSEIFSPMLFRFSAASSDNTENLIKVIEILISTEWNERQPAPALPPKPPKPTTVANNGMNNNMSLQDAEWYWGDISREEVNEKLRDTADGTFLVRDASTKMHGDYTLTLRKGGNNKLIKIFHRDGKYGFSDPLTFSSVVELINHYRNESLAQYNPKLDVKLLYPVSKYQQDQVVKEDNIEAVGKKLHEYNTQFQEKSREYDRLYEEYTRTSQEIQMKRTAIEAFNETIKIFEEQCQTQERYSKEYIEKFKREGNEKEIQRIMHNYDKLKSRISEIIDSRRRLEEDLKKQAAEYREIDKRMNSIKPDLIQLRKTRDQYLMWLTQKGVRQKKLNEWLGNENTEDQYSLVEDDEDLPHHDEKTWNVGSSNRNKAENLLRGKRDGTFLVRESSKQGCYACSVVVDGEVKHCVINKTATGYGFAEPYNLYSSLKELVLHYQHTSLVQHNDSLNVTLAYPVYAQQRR
Method: as §1, §2, §3

FRAP = FRAP (Homo sapiens, UniProt P42345); assay: as above; parameters: endogenous in cells; settings: 10 μM free compound; mix of Jurkat and Ramos cell lysates
Method: as §1, §2, §3

DNAPK = DNAPK (Homo sapiens, UniProt P78527); assay: as above; parameters: endogenous in cells; settings: 10 μM free compound; mix of Jurkat and Ramos cell lysates
Method: as §1, §2, §3

NEK2 = NEK2 (Homo sapiens, UniProt P51955); assay: as above; parameters: endogenous in cells; settings: 10 μM free compound; mix of Jurkat and Ramos cell lysates
Method: as §1, §2, §3

PIK3Cg = PIK3Cg (Homo sapiens, UniProt P48736); assay: as above; parameters: endogenous in cells; settings: 10 μM free compound; mix of Jurkat and Ramos cell lysates
Method: as §1, §2, §3

PIK3Cd [2] = target: T10, PIK3Cd; assay: Kinobeads competition binding, immobilized CZC31207, HeLa/placenta lysate mix; parameters: endogenous in cells; host or cells: mixed lysate of HeLa cells and placenta; settings: 10 μM free compound; mixed HeLa and placenta cell lysates
Method: To the first aliquot of cell lysate 10 μM of the free compound (CZC31207) was added and allowed to bind to proteins in the lysate. Then the affinity matrix with the immobilized compound (Example 1) was added to capture proteins that were not interacting with the previously added free compound. Beads were separated from the lysate and bead bound proteins were eluted in SDS sample buffer and subsequently separated by SDS-Polyacrylamide gel electrophoresis (FIG. 4). Suitable gel bands were cut out and subjected to in-gel proteolytic digestion with trypsin. The second lysate aliquot was processed identically, however no free compound was added (DMSO solvent control). Peptides originating from samples 1 and 2 were labeled with iTRAQ reagents (iTRAQ 115 and iTRAQ 117) and the combined samples were analyzed with a nano-flow liquid chromatography system coupled online to a tandem mass spectrometer (LC-MS/MS) experiment followed by iTRAQ reporter ion quantification in the MS/MS spectra (Ross et al., 2004. Mol. Cell. Proteomics 3(12):1154-1169). Further experimental protocols can be found in WO2006/134056 and a previous publication (Bantscheff et al., 2007. Nature Biotechnology 25, 1035-1044).
Cells were homogenized in a Potter S homogenizer in lysis buffer: 50 mM Tris-HCl, 0.8% NP40, 5% glycerol, 150 mM NaCl, 1.5 mM MgCl2, 25 mM NaF, 1 mM sodium vanadate, 1 mM DTT, pH 7.5. One complete EDTA-free tablet (protease inhibitor cocktail, Roche Diagnostics, 1 873 580) per 25 ml buffer was added. The material was dounced 20 times using a mechanized POTTER S, transferred to 50 ml falcon tubes, incubated for 30 minutes rotating at 4° C. and spun down for 10 minutes at 20,000×g at 4° C. (10,000 rpm in Sorvall SLA600, precooled). The supernatant was transferred to an ultracentrifuge (UZ)-polycarbonate tube (Beckmann, 355654) and spun for 1 hour at 145.000×g at 4° C. […] The supernatant was transferred again to a fresh 50 ml falcon tube, the protein concentration was determined by a Bradford assay (BioRad) and samples containing 50 mg of protein per aliquot were prepared. […]

- Competition % PIK3C3 (PIK3C3): 52.4%
- Competition % PKD2 (PKD2): 37.9%
- Competition % CaMK2d (CaMK2d): −1.3%
- Competition % CDC2 (CDC2): 34.1%
- Competition % PIK4C2B (PIK4C2B): 20.3%
- Competition % PIP5K2A (PIP5K2A): 68.5%
- Competition % MST1 (MST1): 24.5%
- Competition % BIKE (BIKE): 26.1%
- Competition % CDK6 (CDK6): −1.6%
- Competition % CaMK2g (CaMK2g): −3.1%
- Competition % PIK4Ca (PIK4Ca): 28.5%
- Competition % PIK3Cb (PIK3Cb): 94.8%
- Competition % PIP5K2C (PIP5K2C): 75.5%
- Competition % PIK3Cd (PIK3Cd [1]): 91.3%
- Competition % FRAP (FRAP): −87.1%
- Competition % DNAPK (DNAPK): 38.2%
- Competition % NEK2 (NEK2): 17%
- Competition % PIK3Cg (PIK3Cg): 91.5%
- Competition % PIK3Cd (PIK3Cd [2]): 83.6%
SMILES: CC(C)NS(=O)(=O)c1cncc(-c2ccc3nc(NC(=O)NCCN)nn3c2)c1 [CZC31207, 5-(2-(3-(2-aminoethyl)ureido)-[1,2,4]triazolo[1,5-a]pyridin-6-yl)-N-isopropylpyridine-3-sulfonamide]
